Measurements from the supplement of paper PMC10307832.

Assays:
Experiment in all cases: relative viability (nuclei count vs DMSO), 5 days (fraction); higher = more cells survive
CUDC-101 + Navitoclax = compound: C#Cc1cccc(Nc2ncnc3cc(OC)c(OCCCCCCC(=O)NO)cc23)c1 [CUDC-101] + CC1(C)CCC(c2ccc(Cl)cc2)=C(CN2CCN(c3ccc(C(=O)NS(=O)(=O)c4ccc(N[C@H](CCN5CCOCC5)CSc5ccccc5)c(S(=O)(=O)C(F)(F)F)c4)cc3)CC2)C1 [Navitoclax] (partner 0.5 µM)
Outline: (§1)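 Cells from lung cancer lines were seeded into 1536-well plates and, one day later, dosed by pin tool. Treatments were either a single drug or a fixed dose of an anchor drug with five library-drug doses (not always all listed) in √10 steps. After 5 days, nuclei were stained in a one-step fixation (final 0.05% Triton X-100, 1% formaldehyde, 1 ug/ml Hoechst) and counted on 4× images, and relative viability is the treated-to-vehicle nuclei ratio, as the median of duplicate plates.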

NVP-TAE684 + Navitoclax = compound: COc1cc(N2CCC(N3CCN(C)CC3)CC2)ccc1Nc1ncc(Cl)c(Nc2ccccc2S(=O)(=O)C(C)C)n1 [NVP-TAE684] + CC1(C)CCC(c2ccc(Cl)cc2)=C(CN2CCN(c3ccc(C(=O)NS(=O)(=O)c4ccc(N[C@H](CCN5CCOCC5)CSc5ccccc5)c(S(=O)(=O)C(F)(F)F)c4)cc3)CC2)C1 [Navitoclax] (partner 0.5 µM)
Outline: as §1

NVP-TAE684 + Crizotinib = compound: COc1cc(N2CCC(N3CCN(C)CC3)CC2)ccc1Nc1ncc(Cl)c(Nc2ccccc2S(=O)(=O)C(C)C)n1 [NVP-TAE684] + C[C@@H](Oc1cc(-c2cnn(C3CCNCC3)c2)cnc1N)c1c(Cl)ccc(F)c1Cl [Crizotinib] (partner 1 µM)
Outline: as §1

Vandetanib + Olaparib = compound: COc1cc2/c(=N/c3ccc(Br)cc3F)nc[nH]c2cc1OCC1CCN(C)CC1 [Vandetanib] + O=C(c1cc(Cc2n[nH]c(=O)c3ccccc23)ccc1F)N1CCN(C(=O)C2CC2)CC1 [Olaparib] (partner 8 µM)
Outline: as §1

NVP-TAE684 + Pemetrexed = compound: COc1cc(N2CCC(N3CCN(C)CC3)CC2)ccc1Nc1ncc(Cl)c(Nc2ccccc2S(=O)(=O)C(C)C)n1 [NVP-TAE684] + Nc1nc2[nH]cc(CCc3ccc(C(=O)N[C@@H](CCC(=O)O)C(=O)O)cc3)c2c(=O)[nH]1 [Pemetrexed] (partner 0.2 µM)
Outline: as §1

Row | Cell Line | relative viability (CUDC-101 + Navitoclax; first compound 0.01 µM) | relative viability (CUDC-101 + Navitoclax; first compound 0.03162 µM) | relative viability (CUDC-101 + Navitoclax; first compound 0.1 µM) | relative viability (CUDC-101 + Navitoclax; first compound 0.3162 µM) | relative viability (CUDC-101 + Navitoclax; first compound 1 µM) | relative viability (NVP-TAE684 + Navitoclax; first compound 0.2 µM) | relative viability (NVP-TAE684 + Navitoclax; first compound 0.6325 µM) | relative viability (NVP-TAE684 + Navitoclax; first compound 2 µM) | relative viability (NVP-TAE684 + Crizotinib; first compound 0.2 µM) | relative viability (NVP-TAE684 + Crizotinib; first compound 0.6325 µM) | relative viability (NVP-TAE684 + Crizotinib; first compound 2 µM) | relative viability (Vandetanib + Olaparib; first compound 0.02 µM) | relative viability (Vandetanib + Olaparib; first compound 0.06325 µM) | relative viability (Vandetanib + Olaparib; first compound 0.2 µM) | relative viability (Vandetanib + Olaparib; first compound 0.6325 µM) | relative viability (Vandetanib + Olaparib; first compound 2 µM) | relative viability (NVP-TAE684 + Pemetrexed; first compound 0.2 µM) | relative viability (NVP-TAE684 + Pemetrexed; first compound 0.6325 µM) | relative viability (NVP-TAE684 + Pemetrexed; first compound 2 µM)
1 | HCC-78 | 0.76 | 0.706 | 0.846 | 0.684 | 0.391 | 0.433 | 0.535 | 0.282 | 0.287 | 0.296 | 0.286 | 0.823 | 0.756 | 0.748 | 0.913 | 0.703 | 0.886 | 0.912 | 0.93
2 | NCI-H2085 | 1.11 | 1.26 | 1.18 | 1.16 | 1.02 | 1.01 | 1.06 | 0.874 | 0.788 | 0.872 | 0.55 | 0.77 | 0.72 | 0.808 | 0.769 | 0.712 | 1.01 | 0.874 | 0.813
3 | COR-L23 | 1.08 | 1.07 | 0.907 | 1.09 | 0.444 | 1.12 | 0.943 | 0.544 | 0.536 | 0.69 | 0.238 | 0.327 | 0.343 | 0.379 | 0.379 | 0.347 | 0.205 | 0.203 | 0.197
4 | HARA | 1.13 | 1.16 | 1.09 | 1.14 | 0.837 | 1.02 | – | 0.701 | 1.07 | 1.02 | 0.508 | 0.624 | 0.821 | 0.681 | 0.867 | 0.883 | 0.262 | 0.211 | 0.233
5 | 201T | 1.18 | 1.17 | 1.16 | 1.2 | 1.21 | 1.21 | 1.19 | 1.12 | 0.972 | 1.01 | 0.889 | 0.79 | 0.829 | 0.796 | 0.791 | 0.817 | 0.334 | 0.332 | 0.323
6 | EMC-BAC-2 | 1.15 | 1.19 | 1.19 | 1.1 | 0.923 | 1.12 | 1.13 | 0.695 | 0.751 | 0.806 | 0.441 | 0.509 | 0.478 | 0.498 | 0.492 | 0.531 | 0.429 | 0.405 | 0.433
7 | NCI-H441 | 0.875 | 0.57 | 0.545 | 0.795 | 0.392 | 0.472 | 0.583 | 0.319 | 0.661 | 0.659 | 0.315 | 0.498 | 0.576 | 0.646 | 0.658 | 0.616 | 0.271 | 0.29 | 0.223
8 | NCI-H1944 | 1.02 | 1.03 | 1.01 | 1.09 | 0.861 | 1.19 | 0.961 | 1.08 | 1.07 | 1.03 | 0.933 | 0.414 | 0.396 | 0.306 | 0.377 | 0.397 | 0.705 | 0.585 | 0.631
